Reference: EP1571449A1 (priority 2004, dated 2005)
Where two headings read alike, the source gives them in different places.

Key:
PrP^C = PrP^C (Homo sapiens, UniProt P04156); assay type: binding
plasma PrP^C = plasma PrP^C (Homo sapiens, UniProt P04156); settings: plasma mixed with 400 µM CuCl2, copper containing gradient, 16 h at 100,000 x g, 4 °C

## OO [H2O2, hydrogen peroxide]
PrP^C
  dose relation of the effect on assay sensitivity: dose-related effects on the assay sensitivity
  effect on detection of bound prion proteins (assay sensitivity): enhanced the detection of bound prion proteins

## O=C(O)CN(CCN(CC(=O)O)CC(=O)O)CC(=O)O [EDTA, reference compound]
PrP^C
  PrP^C detection, assay 4: blocking effects
  PrP^C detection, assay 5: complete inhibition of the copper effects
  PrP^C detection, assay 6: the copper-induced changes of PrP^C disappeared
  PrP^C detection, assay 7: improved detection of PrP^C was observed
  effect of EDTA on the copper-induced assay sensitivity increase: dose-related reduction of copper-induced assay sensitivity increase

## O=S(=O)([O-])[O-].[Cu+2] [CuSO4]
PrP^C
  dose relation of the effect on assay sensitivity: dose-related effects on the assay sensitivity
  effect on detection of bound prion proteins (assay sensitivity): improvement in sensitivity
  increase in sensitivity: more than 3000 fold
  plasma dilution at which twice the backgound signal was detected: 156250 times diluted

## [Cl][Cu][Cl] [CuCl2]
PrP^C
  PrP^C detection, assay 2: much more improved detection of PrP^C
  PrP^C detection, assay 3: slightly worse detection of PrP^C as compared to assay 2
PrP^C; 15 min
  effect on detection of bound prion proteins (assay sensitivity): improvement in sensitivity
Plasma PrP^C
  migration pattern of PrP^C immunoreactivity in sucrose gradient: the high molecular weight peak, present in EDTA plasma, disappeared

## O=CO [formic acid]
PrP^C
  effect on detection of bound prion proteins (assay sensitivity): had no effect on the assay

## [Cl][Mn][Cl] [MnCl2]
PrP^C
  effect on detection of bound prion proteins (assay sensitivity): improvement in sensitivity
  times higher concentration needed for the same signal increasing effect as compared to zinc: about 12 times

## O=S(=O)([O-])[O-].[Zn+2] [ZnSO4]
PrP^C
  effect on detection of bound prion proteins (assay sensitivity): improvement in sensitivity
